{
  "source": "patent US10328062B2",
  "about": "“Biomarkers and use of MET inhibitor for treatment of cancer” (AMGEN, INC., priority 2014, dated 2019)",
  "key": {"[1]": {"test": "Body weight and tolerability in HCC PDX models", "type": "in vivo", "details": "LI0612 and LI1078 models", "protocol": "Two HCC patient-derived tumor xenograft (PDX) mouse models were established by directly inoculated subcutaneously with primary human HCC tumor tissues into female BABL/c nude mice. Briefly, each mouse (8-10 weeks old) was purchased from Shanghai Laboratory Animal Center (SLAC). All the animal experiments were performed according to the guidelines approved by the Institutional Animal Care and Use Committee (IACUC). The treatment was started when the average size reached about 180 mm^3. Mice were allocated randomly into four experiment groups (12 animals per group) according to their tumor sizes. […]. The tumor size and body weight were measured twice weekly. The length, width, and height of tumors were measured with a caliper. The tumor volume was calculated as L×W×H and expressed in mm^3. The percentage of tumor growth inhibition (% TGI=100%−(VTi−VT0)/(VCi−VC0)*100%) was calculated for evaluating anti-tumor efficacy. VTi, mean tumor size in treatment group on the Day i; VT0, mean tumor volume in treatment group on Day 0; VCi, mean tumor size in vehicle group on Day i; VC0, mean tumor size in vehicle group on Day 0.\nMice with subcutaneously established tumor tissues were randomly grouped and treated with vehicle or Compound Mat doses of 3, 10 and 30 mg/kg once daily by oral administration for 14 days. […]. […]. […]"}, "SNU620": {"tested_on": "SNU620", "test": "Flow cytometry cell cycle analysis", "type": "cell-based, Human", "details": "SNU 620; dose titration, 24 hours", "protocol": "(§1) Bromodeoxyuridine (BrdU) labeling reagent was added to cells for the final two hours of compound treatment. Cells were then washed with PBS and treated with trypsin to release from the bottom of the plate. Cells were washed and fixed in 90% methanol at −20° C. overnight. Cells were then washed and treated with 2N HCl and 0.5% triton X-100 to denature the DNA, followed by a wash and staining with anti-BrdU Alexa-647 and anti-Cleaved-Caspase-3 FITC antibodies. Finally cells were subjected to RNase treatment and propidium iodide staining. Cells were then analyzed on an LSRII flow cytometer.\n(§2) The anti-BrdU Alexa-647 antibody was purchased from Invitrogen (Carlsbad, Calif.). The anti-cleaved-caspase-3 FITC antibody was purchased from BD Pharmingen (San Jose, Calif.).\n(§3) Flow cytometry cell cycle analysis of MET amplified gastric cancer cell line MKN-45 is represented in FIG. 6. […] BrdU labeling was performed during the final 2 hours of compound treatment. Cells were then harvested, fixed, permeabilized and stained with BrdU and caspase-3 antibodies, followed by treatment with RNase and propidium iodide. Cells were then analyzed by flow cytometry to document effects on the cell cycle. […] Flow cytometry cell cycle analysis of MET amplified gastric cancer cell line SNU620 are represented in FIG. 6B. SNU 620 cells were treated as described above. […] Subsequent lysates were analyzed by SDS-PAGE and immunoblot using antibodies detecting cleaved PARP, cleaved caspase-3 and β-actin."}, "MKN-45 [2]": {"tested_on": "MKN-45", "test": "Flow cytometry cell cycle analysis", "type": "cell-based, Human", "details": "dose titration, 24 hours", "protocol": "as §1, §2, §3"}, "NCI-H1993": {"tested_on": "NCI-H1993", "test": "72 hour cancer cell line viability assay (CellTiter-Glo)", "type": "cell-based", "details": "Homo sapiens", "protocol": "(§4) Human cancer cell lines were purchased from ATCC, JCRB, Sigma Aldrich or DSMZ. All cell lines were propagated in growth media per the suppliers' recommendation and maintained in 5% CO2 and 37° C.\n(§5) Cancer cell line viability assays were carried out using the CellTiter-Glo Luminescent Cell Viability Assay from Promega (Madison, Wis.). Optimal cell seeding densities were determined using time lapse imaging to maximize signal window and ensure cells were not contact growth inhibited at the 72 hour time point. Cells were seeded in 96 well plates in complete growth media and allowed to adhere to the bottom of the plate by incubation at 37° C. and 5% CO2 overnight. […] Plates were incubated at 37° C. and 5% CO2 for 72 hours. Treated plates were then allowed to equilibrate to room temperature along with, CellTiter-Glo substrate and buffer solution prior to use in the viability assay. CellTiter-Glo substrate vials were reconstituted in 10 mL of buffer solution and added to assay plates in 100 μL/well volumes. Plates were shaken for 2 minutes at 700 rotations per minute with an orbit diameter of 3 mm followed by room temperature incubation for 10 minutes. Plates were then read using an Envision plate reader on luminescent setting.\n(§6) To calculate growth inhibition effects (0-200% scale), time zero vehicle treated wells (V0), were read at the time of compound addition for each cell line.\n(§7) Threshold for high vs low MET copy number was set at aCGH log 2 ratio of 2.5. Focal nature of MET copy number increase was defined qualitatively using tiled aCGH results for chromosome 7.\n(§8) Percent growth inhibition is reported on a 0-200% scale where 0% is equivalent to no effect (time 72 hour control), 100% is equivalent to stasis (time 0 hour control) and 200% is equivalent to complete cell death."}, "MKN-45 [3]": {"tested_on": "MKN-45", "test": "72 hour cancer cell line viability assay (CellTiter-Glo)", "type": "cell-based", "details": "Homo sapiens", "protocol": "as §4, §5, §6, §7, §8"}},
  "data": [
    {"compound": "COCCOc1cnc2ccn([C@H](C)c3nnc4c(F)cc(-c5cnn(C)c5)cn34)c(=O)c2c1", "note": "[Compound M, 6-{(1R)-1-[8-fluoro-6-(1-methyl-1H-pyrazol-4-yl)[1,2,4]triazolo[4,3-a]pyridin-3-yl]ethyl}-3-(2-methoxyethoxy)-1,6-naphthyridin-5(6H)-one]", "values": [
      {"measurement": "body weight", "setting": "[1]; 3, 10, 30 mg/kg once daily, 14 days", "result": "no significant body weight changed or lost"},
      {"measurement": "tolerability", "setting": "[1]; all dose levels", "result": "well tolerated"},
      {"measurement": "subG1/Caspase-3+ cells (cell killing)", "setting": "SNU620", "result": "robust induction"},
      {"measurement": "S-phase positive cells (BrdU+)", "setting": "MKN-45 [2]", "result": "corresponding reduction"},
      {"measurement": "percentage of cells in the G1 phase of the cell cycle", "setting": "MKN-45 [2]", "result": "dose dependent increase"},
      {"measurement": "IC50", "setting": "NCI-H1993; NCI-H1993, NSCLC, MET copy number High, focal Yes, 72 hour viability", "result": 17, "unit": "nM"},
      {"measurement": "Emax", "setting": "NCI-H1993; NCI-H1993, 72 hour, 0-200% scale, 100% = stasis, read-out: maximum effect, growth inhibition", "result": 100, "unit": "%"},
      {"measurement": "IC50", "setting": "MKN-45 [3]; MKN-45, Gastric, MET copy number High, focal Yes, 72 hour viability", "result": 9, "unit": "nM"},
      {"measurement": "Emax", "setting": "MKN-45 [3]; MKN-45, 72 hour, 0-200% scale, 100% = stasis, read-out: maximum effect, growth inhibition", "result": 100, "unit": "%"}
    ]}
  ]
}
